The subject of one test is INS1. The experiment in a line: inhibitors of cytokine-induced nitrite release, dose response, cell-based, Griess absorbance, INS-1E, dry powder, set 2 (AID 488868). It is filed as functional. As to conditions: Rattus norvegicus. (In general: Nitrite, measured by Griess reagent, commonly stands in for NO production.)
For test [1], the target named is ATP-dependent molecular chaperone HSP82 (Candida albicans (strain WO-1) (Yeast), UniProt C4YTQ8). Kind of test: loss of DOC-induced GRE-beta-galactosidase reporter signal, dose response, Hsp90 inhibitor project, S. cerevisiae, luminescence (AID 2400).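 Note: beta-galactosidase luminescence from glucocorticoid response element reporter as proxy for Hsp90 function; inhibitor potency where signal loss means Hsp90 inhibition.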 The test is classed as functional, cell-based.
A short description of test [2]: cytotoxicity toward NIH3T3 fibroblasts, dose response, counter-screen, cell-based, ATP luminescence, mouse fibroblasts (AID 2010).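 Note: cells exposed to compound for about 90 hours before reading.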 The test is classed as functional. For orientation: The purpose of a counterscreen is to sort out artefacts and off-target activity.
Test [3] deals with Candida albicans. The experiment in a line: fluconazole resistance reversal in C. albicans, dose response, CaCi-2 strain, Alamar Blue, dry powder, set 4 (AID 488943). It is filed as functional, organism-based. A general note: Alamar Blue is a resazurin reagent that responds to reducing activity.
The subject of test [4] is Candida albicans. The experiment in a line: C. albicans growth inhibition with fluconazole, dose response, antifungal resistance reversal project, CaCi-2 strain, Alamar Blue, dry powder, set 2 (AID 488930). It is filed as functional, organism-based.
Test [5] concerns Candida albicans. The experiment in a line: growth inhibition of azole-resistant C. albicans, dose response, CaCi-8 strain, Alamar Blue, dry powder, set 2 (AID 488909). The test is classed as functional, organism-based.
The nature of test [6]: C. albicans growth with fluconazole, confirmation, fluorescence, retest (AID 2467). The test is classed as functional, cell-based.
Test [7] can be described thus: NIH-3T3 fibroblast cytotoxicity, dose response, cytotoxicity control, cell-based, fluorescence, Alamar Blue, secondary assay (AID 2327).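 Note: NIH-3T3 mouse fibroblasts cultured with fluconazole at 8 µg/mL.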 It is filed as functional.
The target of the next test is Protein Wnt-3a (Mus musculus, UniProt P27467). Kind of test: Wnt3a-driven reporter signaling inhibition, dose response, selectivity assay for Gli-SUFU antagonist project, Wnt-LIGHT cells, luminescence (AID 651570).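 Note: Wnt-LIGHT reporter cells stimulated with conditioned medium from Wnt3a-producing cells.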 The test is classed as functional. As to conditions: read-out: IC50_Mean.
The subject of the next test is NIH3T3. Kind of test: cytotoxicity in NIH-3T3 fibroblasts, dose response, cytotoxicity control for antifungal drug resistance project, cell-based, Alamar Blue, fluconazole, dry powder (AID 488809). The test is classed as functional. As to conditions: Mus musculus.
The test system of test [8] is Candida albicans. Kind of test: single-agent growth inhibition of C. albicans, dose response, counter-screen for antifungal drug resistance project, C. albicans CaCi-2, dry powder (AID 488802). It is filed as functional, organism-based.
Test [9] in a line: inhibitors of intracellular T. cruzi replication, confirmation, NIH3T3 host cells, beta-gal luminescence (AID 2044).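 Note: intracellular parasites grown in NIH/3T3 mouse fibroblasts as host cells; luminescent beta-galactosidase reporter signal from transgenic T. cruzi replicating inside host cells; inhibitors lower the luminescence signal.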 The test is classed as functional, cell-based.
The target of test [10] is Serine/threonine-protein phosphatase (Candida dubliniensis (strain CD36 / CBS 7987 / NCPF 3949 / NRRLY-17841) (Yeast), UniProt B9W6M3). Kind of test: calcineurin pathway inhibitors in yeast reporter, dose response, S. cerevisiae, CDRE-lacZ, luminescence, secondary (AID 2388).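 Note: yeast reporter cells carrying a calcineurin-responsive lacZ construct stimulated with calcium chloride; luminescent beta-galactosidase reporter signal in whole cells rather than isolated phosphatase activity; potency for inhibition where a drop in reporter signal means calcineurin blockade.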 It is filed as functional, cell-based.
A further test relates to HEK293. The experiment in a line: inhibitors of LMP1-driven NF-kB reporter, dose response, cell-based, HEK293, luciferase, cherry-pick (AID 588343). It is filed as functional. As to conditions: Homo sapiens.
The subject of test [11] is Candida albicans. Kind of test: growth inhibition of resistant C. albicans, dose response, CaCi-8, fluconazole, Alamar Blue, dry powder (AID 488807). It is filed as functional, organism-based.
In test [12] the test system is Streptococcus sp. 'group A'. The experiment in a line: growth inhibition of control SK(-) GAS strain, dose response, counter-screen for streptokinase expression inhibitor project, luminescence, kanamycin, BacTiterGlo, confirmation (AID 1900). The test is classed as functional, organism-based.
In test [13] the target is T1, Endoribonuclease toxin MazF (Escherichia coli K-12, UniProt P0AE70). The experiment in a line: MazF toxin RNase activators, dose response, biochemical, fluorescence, single-stranded RNA substrate, uHTS hits (AID 588481). It is filed as functional.
The target in test [14] is Peroxisome proliferator-activated receptor gamma/Nuclear receptor coactivator 2 (Homo sapiens, UniProt P37231). It is filed as functional.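 Note: agonist potency for raising coactivator recruitment to the receptor.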
The target in test [15] is T1, Endoribonuclease toxin MazF. The experiment in a line: fluorescent RNA oligo signal without MazF, dose response, counter-screen for MazEF activator project, biochemical, fluorescence, single-stranded RNase substrate (AID 588502). The test is classed as functional.
Test [16] has as its target Peroxisome proliferator-activated receptor gamma/Nuclear receptor coactivator 1 (Homo sapiens, UniProt P37231). It is filed as functional.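 Note: agonist potency as compounds enhance coactivator SRC-1 recruitment to PPARgamma.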
In the next test the test system is Streptococcus. The experiment in a line: Group A Streptococcus viability loss, dose response, counter-screen for streptokinase expression inhibitor project, luminescence, BacTiterGlo (AID 1915).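 Note: potency for reduction of bacterial viability or growth.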 The test is classed as functional, organism-based.
The target in test [17] is Peroxisome proliferator-activated receptor gamma/Nuclear receptor coactivator 3 (Homo sapiens, UniProt P37231). It is filed as functional.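 Note: agonist potency for raising coactivator recruitment to the receptor.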
Test [18] deals with Cyclin-dependent kinase 2 (Homo sapiens, UniProt P24941). Kind of test: CDK2 kinase inhibitors, off-target check, dose response, selectivity assay for Dyrk1A inhibitor project, biochemical, cherry-picked samples (AID 602127).
Test [19] has as its target Dual specificity protein kinase CLK1 (Homo sapiens, UniProt P49759). The experiment in a line: CLK1 kinase inhibitors, off-target check, dose response, selectivity assay for Dyrk1A inhibitor project, biochemical, cherry-picked samples (AID 588811).

The source made the active and inactive calls.

T1 sequence (P0AE70 whole entry): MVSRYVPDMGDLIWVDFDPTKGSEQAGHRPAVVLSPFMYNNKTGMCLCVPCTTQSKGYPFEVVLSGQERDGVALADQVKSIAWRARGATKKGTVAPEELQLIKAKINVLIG
Peroxisome proliferator-activated receptor gamma/Nuclear receptor coactivator 2, sequence (P37231 whole entry): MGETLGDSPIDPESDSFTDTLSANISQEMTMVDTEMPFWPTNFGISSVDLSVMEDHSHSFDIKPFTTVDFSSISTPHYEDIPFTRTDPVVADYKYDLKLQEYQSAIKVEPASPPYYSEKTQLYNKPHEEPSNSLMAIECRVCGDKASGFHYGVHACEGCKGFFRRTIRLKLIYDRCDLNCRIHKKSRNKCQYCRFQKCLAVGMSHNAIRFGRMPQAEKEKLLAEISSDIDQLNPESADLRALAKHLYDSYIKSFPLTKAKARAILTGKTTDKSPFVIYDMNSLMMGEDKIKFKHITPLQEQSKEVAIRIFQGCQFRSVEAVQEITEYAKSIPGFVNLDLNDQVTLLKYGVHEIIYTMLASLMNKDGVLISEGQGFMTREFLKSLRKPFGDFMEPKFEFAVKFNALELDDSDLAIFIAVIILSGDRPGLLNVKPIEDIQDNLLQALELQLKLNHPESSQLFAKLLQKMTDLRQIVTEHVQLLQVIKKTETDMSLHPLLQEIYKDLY
Peroxisome proliferator-activated receptor gamma/Nuclear receptor coactivator 2, sequence (Q15596 whole entry, further chain): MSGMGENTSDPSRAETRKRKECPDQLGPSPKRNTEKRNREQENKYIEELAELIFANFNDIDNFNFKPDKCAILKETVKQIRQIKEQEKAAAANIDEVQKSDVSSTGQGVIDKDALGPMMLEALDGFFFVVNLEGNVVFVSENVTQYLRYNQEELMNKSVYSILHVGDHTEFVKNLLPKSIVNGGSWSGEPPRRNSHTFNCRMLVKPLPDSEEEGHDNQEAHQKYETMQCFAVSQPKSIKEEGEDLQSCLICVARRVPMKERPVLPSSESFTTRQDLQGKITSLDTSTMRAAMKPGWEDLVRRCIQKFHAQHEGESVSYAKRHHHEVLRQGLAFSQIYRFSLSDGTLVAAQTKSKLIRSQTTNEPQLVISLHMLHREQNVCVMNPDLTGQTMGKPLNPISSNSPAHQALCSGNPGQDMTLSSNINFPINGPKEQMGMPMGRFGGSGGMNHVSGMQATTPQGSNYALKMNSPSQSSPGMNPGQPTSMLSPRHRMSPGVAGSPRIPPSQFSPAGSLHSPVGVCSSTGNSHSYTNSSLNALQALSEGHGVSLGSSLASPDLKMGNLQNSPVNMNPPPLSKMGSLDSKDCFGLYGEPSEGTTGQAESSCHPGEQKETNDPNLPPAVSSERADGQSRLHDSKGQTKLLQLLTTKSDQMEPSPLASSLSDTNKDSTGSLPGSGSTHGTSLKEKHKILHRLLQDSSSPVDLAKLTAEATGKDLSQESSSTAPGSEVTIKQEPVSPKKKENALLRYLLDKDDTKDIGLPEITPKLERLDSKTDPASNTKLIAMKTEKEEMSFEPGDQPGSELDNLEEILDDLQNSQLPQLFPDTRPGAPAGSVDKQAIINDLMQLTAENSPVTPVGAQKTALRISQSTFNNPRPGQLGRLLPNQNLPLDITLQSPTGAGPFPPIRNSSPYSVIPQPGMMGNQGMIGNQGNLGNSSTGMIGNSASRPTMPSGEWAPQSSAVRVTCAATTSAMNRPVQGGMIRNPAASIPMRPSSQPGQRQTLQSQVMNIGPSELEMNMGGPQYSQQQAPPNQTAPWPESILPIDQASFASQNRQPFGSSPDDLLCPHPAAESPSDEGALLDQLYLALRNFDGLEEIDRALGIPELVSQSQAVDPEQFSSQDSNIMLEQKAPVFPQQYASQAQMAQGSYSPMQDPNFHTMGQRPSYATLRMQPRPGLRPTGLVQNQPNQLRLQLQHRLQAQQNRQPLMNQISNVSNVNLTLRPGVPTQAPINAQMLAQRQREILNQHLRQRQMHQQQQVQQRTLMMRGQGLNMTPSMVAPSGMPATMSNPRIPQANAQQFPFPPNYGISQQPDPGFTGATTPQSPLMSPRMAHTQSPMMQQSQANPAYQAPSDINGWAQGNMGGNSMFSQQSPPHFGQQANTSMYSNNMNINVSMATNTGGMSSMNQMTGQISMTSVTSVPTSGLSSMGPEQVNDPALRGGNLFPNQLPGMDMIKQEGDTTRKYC
Peroxisome proliferator-activated receptor gamma/Nuclear receptor coactivator 1, sequence (P37231 whole entry): as the sequence (P37231 whole entry) above
Peroxisome proliferator-activated receptor gamma/Nuclear receptor coactivator 1, sequence (Q15788 whole entry, further chain): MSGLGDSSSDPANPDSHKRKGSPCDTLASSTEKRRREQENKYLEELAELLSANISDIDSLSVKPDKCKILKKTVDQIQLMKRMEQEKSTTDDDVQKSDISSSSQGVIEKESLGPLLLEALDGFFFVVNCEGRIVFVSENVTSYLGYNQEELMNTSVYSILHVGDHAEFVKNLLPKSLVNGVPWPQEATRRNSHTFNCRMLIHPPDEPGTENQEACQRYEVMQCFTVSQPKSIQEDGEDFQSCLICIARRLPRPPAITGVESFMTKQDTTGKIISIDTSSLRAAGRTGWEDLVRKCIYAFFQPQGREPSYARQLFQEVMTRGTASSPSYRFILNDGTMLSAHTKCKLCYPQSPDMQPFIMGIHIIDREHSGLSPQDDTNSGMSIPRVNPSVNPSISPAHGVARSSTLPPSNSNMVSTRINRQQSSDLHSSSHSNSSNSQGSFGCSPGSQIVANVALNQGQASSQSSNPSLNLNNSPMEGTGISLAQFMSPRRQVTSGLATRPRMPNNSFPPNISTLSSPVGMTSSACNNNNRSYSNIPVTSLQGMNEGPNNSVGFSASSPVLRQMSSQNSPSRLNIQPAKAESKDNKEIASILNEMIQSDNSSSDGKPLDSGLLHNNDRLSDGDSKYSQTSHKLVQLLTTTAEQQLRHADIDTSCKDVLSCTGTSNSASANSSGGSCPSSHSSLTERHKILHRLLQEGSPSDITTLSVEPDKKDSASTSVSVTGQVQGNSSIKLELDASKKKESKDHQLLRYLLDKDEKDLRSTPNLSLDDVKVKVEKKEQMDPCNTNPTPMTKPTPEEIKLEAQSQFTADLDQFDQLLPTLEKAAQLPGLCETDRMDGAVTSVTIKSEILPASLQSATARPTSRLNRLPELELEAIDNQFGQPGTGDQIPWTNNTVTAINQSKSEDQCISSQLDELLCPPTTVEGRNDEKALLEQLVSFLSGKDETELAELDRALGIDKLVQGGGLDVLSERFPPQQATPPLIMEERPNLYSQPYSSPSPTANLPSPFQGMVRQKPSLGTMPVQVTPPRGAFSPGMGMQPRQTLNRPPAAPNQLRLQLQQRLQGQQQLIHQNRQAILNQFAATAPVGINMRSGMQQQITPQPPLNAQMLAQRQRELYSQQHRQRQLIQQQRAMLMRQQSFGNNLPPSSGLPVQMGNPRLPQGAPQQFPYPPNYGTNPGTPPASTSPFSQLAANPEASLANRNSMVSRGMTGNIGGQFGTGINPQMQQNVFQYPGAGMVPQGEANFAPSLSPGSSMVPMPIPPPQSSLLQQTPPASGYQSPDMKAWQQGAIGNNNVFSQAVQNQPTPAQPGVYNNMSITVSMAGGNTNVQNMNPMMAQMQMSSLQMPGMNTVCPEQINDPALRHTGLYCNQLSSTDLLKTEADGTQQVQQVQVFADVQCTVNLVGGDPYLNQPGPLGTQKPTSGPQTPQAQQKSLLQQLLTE
Protein Wnt-3a, sequence (P27467 whole entry): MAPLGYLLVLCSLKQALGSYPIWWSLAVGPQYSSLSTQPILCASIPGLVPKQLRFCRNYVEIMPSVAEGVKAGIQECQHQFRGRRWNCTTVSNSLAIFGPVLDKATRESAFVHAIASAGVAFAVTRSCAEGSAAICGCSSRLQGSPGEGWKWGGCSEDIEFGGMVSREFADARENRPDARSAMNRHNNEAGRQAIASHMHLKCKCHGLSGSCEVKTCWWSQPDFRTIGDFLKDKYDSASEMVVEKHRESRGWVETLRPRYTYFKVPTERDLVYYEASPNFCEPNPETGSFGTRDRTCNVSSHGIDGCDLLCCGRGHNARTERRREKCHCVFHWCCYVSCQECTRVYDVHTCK
Serine/threonine-protein phosphatase, sequence (B9W6M3 whole entry): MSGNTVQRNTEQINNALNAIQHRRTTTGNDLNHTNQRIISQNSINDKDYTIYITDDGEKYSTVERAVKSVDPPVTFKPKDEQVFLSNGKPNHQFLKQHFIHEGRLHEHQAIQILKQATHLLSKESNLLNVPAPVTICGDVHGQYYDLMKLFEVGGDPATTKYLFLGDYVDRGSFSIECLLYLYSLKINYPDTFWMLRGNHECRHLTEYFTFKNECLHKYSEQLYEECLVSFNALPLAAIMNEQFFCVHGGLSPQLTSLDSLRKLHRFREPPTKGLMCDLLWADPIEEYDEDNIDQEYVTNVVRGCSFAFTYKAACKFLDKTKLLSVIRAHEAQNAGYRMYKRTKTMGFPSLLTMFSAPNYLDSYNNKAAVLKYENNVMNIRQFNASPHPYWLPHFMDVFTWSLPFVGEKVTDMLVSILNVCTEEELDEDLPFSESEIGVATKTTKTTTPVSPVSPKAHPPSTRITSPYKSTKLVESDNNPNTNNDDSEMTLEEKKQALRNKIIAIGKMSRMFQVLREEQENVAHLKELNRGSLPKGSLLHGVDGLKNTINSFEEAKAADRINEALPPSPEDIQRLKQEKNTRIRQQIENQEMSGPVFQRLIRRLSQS

What is called AC50 is the midpoint of the concentration-response curve, whichever way the signal moves. For `C[C@@H]1CN([C@@H](C)CO)C(=O)c2cccc(NS(=O)(=O)c3ccccc3)c2O[C@H]1CN(C)Cc1ccc(C(F)(F)F)cc1`, the concentration at half-maximal activity (AC50) with INS1 is 242 µM (active).
By EC50 is commonly meant the concentration giving half of the maximal effect. On to `O=C(c1ccc(Cl)cc1)N1CCN(c2ccnc3cc(Cl)ccc23)CC1`, for which the EC50 in test [1] was > 150 µM (inactive); in test [2], > 60 µM (not active); in [6], 0.742 µM (active); in test [7], > 150 µM (inactive); in test [9], 1.34 µM (active); in test [10] it was > 180 µM (inactive). The AC50 in the test with Candida albicans [3] was 0.306 µM (active); with Candida albicans [3] (Candida albicans) it was 0.362 µM (active); in the test with Candida albicans [4] it was 0.522 µM (active); in the test on Candida albicans [5] it was 3.46 µM (active); with NIH3T3, 22.9 µM (active); in the test with Candida albicans [8], 3.73 µM (active). For the same compound, the concentration at half-maximal activity (AC50) with HEK293 is 16.4 µM (active); in the test with Candida albicans [11], 0.87 µM (active). Besides, on Protein Wnt-3a, the IC50 was 8.3 µM (active).
With `N#Cc1ccc(-c2ccccc2)nc1SCC(=O)c1cc2ccccc2oc1=O`, the EC50 in test [12] was 0.862 µM (active); in test [13], > 99 µM (inactive); in test [14], 13.7 µM (not active); in [15] it was > 99 µM (inactive); in test [16], 15.5 µM (not active); in the test with Streptococcus, 2.22 µM (active). Further, the EC50 in test [17] was 16.4 µM (not active).
With `Cc1ccsc1CN(C)c1ncnc2ccc(-c3ccoc3)cc12`, the AC50 in test [18] was 7.77 µM (active); in test [19], 0.0138 µM (active).

Source of the values: ChEMBL document CHEMBL1201862, “PubChem BioAssay data set” (2004).
